Data taken from patent publication US12441976B2, “Process for reducing the activity of microbial contamination in a yeast medium” (Lallemand Hungary Liquidity Management LLC, priority 2020, dated 2025).

System: contaminating wild-type microbial cells (obtained from a commercial plant)
Experiment: laboratory scale model: antimicrobial treatment of pasteurized corn mash, change in pH after 12 hours
Type: cell-based
Protocol: A laboratory model has been developed to characterize the microbial activity of various components (in isolation and in combination). Briefly, cycloheximide and glucose are added to a pasteurized corn mash (step 010). At step 020, the pasteurized mash was supplemented with an antimicrobial composition and submitted to an acidic treatment. More specifically, at substep 021, an antimicrobial composition was added to the pasteurized mash. Then, at substep 022, contaminating wild-type microbial cells (obtained from a commercial plant) were added. Afterwards, at substep 023, the mash was submitted to an acidic treatment with sulfuric acid. The mash was held in such acidic conditions for 30 minutes at 33° C. (step 030). A base was then added to the acidic mash to increase the pH of the mixture (to a level suitable for the growth and metabolic activity of yeasts, step 040). The neutralized mash obtained after step 040 was maintained at 12 hours at 33° C. (step 050). Step 050 was used to allow, if any, the bacterial growth to measure the antimicrobial efficiency of the different treatments. At step 060, the pH and the presence of different metabolites (using HPLC) were determined.

Compound | inhibition, in words (organic acid alone, 0.1% w/v, pH 3.2) | antimicrobial effectiveness, in words (100 ppm nisin added after the pH was raised to 5.5)
O=CO [formate] | greater inhibition than acetate or D/L lactate only | 
nisin |  | more effective than adding nisin as a part of the antimicrobial blend
